Source: patent US20110059102A1, “Therapeutic Method Targeting Midkine” (NATIONAL UNIVERSITY CORPORATION NAGOYA UNIVERSITY, priority 2009, published 2011)
“Also recorded” adds a separate entry of the source. Where a name gives a salt, the structure may show the parent alone.

B1: PTN: recombinant human pleiotrophin, shows 50% homology with MK (protein, UniProt P21246 33-168, looked up)
Pleiotrophin: GKKEKPEKKVKKSDCGEWQWSVCVPTSGDCGLGTREGTRTGAECKQTMKTQRCKIPCNWKKQFGAECKYQFQAWGECDLNTALKTRTGSLKRALHNAECQKTVTISKPCGKLTKPKPQAESKKKKKEGKKQEKMLD

How the values were obtained:
ACE = ACE expression in HMVEC-L by Western blotting; type: cell-based, human
Text: Histology and immunohistochemistry. The removed kidneys and lungs were fixed in 10% buffered formalin, embedded in paraffin, and then cut into 4-10.1 μm sections. The sections were stained with H&E, PAS, and Masson's trichrome. Another tissue sample was embedded in OCT compound (Sakura Finetek) and frozen in liquid nitrogen for immunostaining. Sections were cut to a thickness of 3 μm with a cryostat and fixed in acetone. High-power fields were used to examine the sections for evidence of focal sclerosis (J. Hypertens. 13:1785-1790, J. Lab. Clin. Med. 115:165-173). Glomerular sclerosis was assessed by semiquantitative score (grades 0 to +4) using the method of Raij et al. (Kidney Int. 26:137-143): grade 0, no sclerosis of glomeruli; grade 1, sclerosis of up to 25% of glomerulus; grade 2, sclerosis of 25%-50% of glomerulus; grade 3, sclerosis of 50%-75% of glomerulus; grade 4, sclerosis of 75%-100% of glomerulus. At least 50 glomeruli were evaluated under ×400 magnification and results averaged for each kidney (Mdk^+/+: 2 weeks, n=5; 4 weeks, n=4; 8 weeks, n=4; Mdk^−/−: 2 weeks, n=4; 4 weeks, n=3; 8 weeks, n=3). Immunostaining for ACE and MK was performed on buffered formalin-fixed tissues. Sections were deparaffinized, rehydrated, incubated in 3% hydrogen peroxide in methanol to block endogenous peroxidase, and washed in 10% normal goat serum (Dako) in PBS to block nonspecific binding. Subsequently, sections were incubated with mouse anti-ACE monoclonal antibody (dilution, 1:400; Chemicon International, Millipore) or anti-MK monoclonal antibody (dilution, 1:100) overnight at 4° C. as described previously (22), followed by a conjugate of polyclonal goat anti-mouse IgG antibody and HRP-labeled polymer (Histofine Simple Stain; Nichirei) for 1 hour at room temperature as a secondary antibody. The staining was visualized with 3-3′ diaminobenzidine (Nichirei) to produce a brown color. The sections were covered with 90% glycerol containing p-phenylenediamine and were examined by electron microscopy (H-7100; Hitachi). For double immunofluorescence staining of MK and thrombomodulin as a marker of the vascular endothelium, the cryosections of lungs were first incubated with chicken anti-human MK (dilution, 1:200) and then with rabbit anti-rat thrombomodulin (dilution, 1:1,000) (J. Immunol. 150:5633-5646), followed by incubation with FITC-labeled rabbit anti-chicken IgG (dilution, 1:160) and rhodamine-labeled goat anti-rabbit IgG (dilution, 1:320) as secondary antibodies. […] The lung and kidney section from each mouse was viewed under ×400 magnification, and then macrophages or neutrophils were counted from 10 fields and averaged. […]

[1] = system: Mdk+/+ mice after 5/6 nephrectomy; experiment: Blood pressure by tail-cuff method, drug treatment model after 5/6 nephrectomy; type: in vivo; details: 2 weeks after 5/6 nephrectomy
Experimental: (§1) Drug treatment model. In the drug treatment studies, Mdk^+/+ mice were randomly assigned to receive one of the following 5 treatments after 5/6 nephrectomy and were orally treated daily starting from 24 hours after 5/6 nephrectomy: vasodilator (hydralazine hydrochloride; Novartis) at a dose of 10 mg/kg/d (group 1, n=3); ACE inhibitor (temocapril; Daiichi Sankyo Co.) at a dose of 3 mg/kg/d (group 2, n=3); angiotensin receptor blocker (olmesartan; Daiichi Sankyo Co.) at a dose of 3 mg/kg/d (group 3, n=3); antioxidative reagent (tempol; Alexis Biochemicals) at a dose of 3 mmol/l in drinking solution after 5/6 nephrectomy (group 4, n=6); and sham operation (group 5, n=6). Drug treatment was performed […]. In the present study, we determined the dosage according to previous reports (Hypertension. 13:582-588, J. Cardiovasc. Pharmacol. 40:533-542, Hypertension. 43:841-848). Blood pressure was measured by the tail-cuff method at 2 weeks, as described below under Blood pressure monitoring. Mice were sacrificed at 2 weeks after 5/6 nephrectomy, and blood and tissue samples were collected.
(§2) Blood pressure monitoring. Blood pressure was measured in restrained, conscious mice by the indirect tail-cuff technique under unstressed conditions (BP-98A; Softron) at 0, 2, 4, 6, and 8 weeks after 5/6 nephrectomy (J. Lab. Clin. Med. 78:957-962). Before measurement, the mice were warmed with a heating pad for 5 minutes. A total of 7-10 readings were taken for each mouse, at 1- to 2-minute intervals.

[2] = system: Mdk+/+ mice after 5/6 nephrectomy; experiment: Kidney histology (PAS staining) after 5/6 nephrectomy, drug treatment model; type: in vivo; details: 2 weeks after 5/6 nephrectomy; for Renal tubulointerstitial damage: PAS staining
Experimental: as §1
Histology and immunohistochemistry.

[3] = Body weight, blood urea nitrogen and serum creatinine after 5/6 nephrectomy, drug treatment model; type: in vivo; details: Mdk+/+ mice; for BUN (blood urea nitrogen) / Cre (serum creatinine): 2 weeks after nephrectomy, oral daily at indicated dose, mean ± SD; for Abnormal elevation of blood urea nitrogen and serum creatinine: 2 weeks after 5/6 nephrectomy
Experimental: Animals and experimental design. Mice deficient in Mdk were generated as described previously (Genes Cells. 3:811-822). After backcrossing of Mdk+/− mice for 14 generations with 129/Sv mice, Mdk+/− mice were mated with each other to generate Mdk^+/+ and Mdk^−/− mice, which were used in this study. Experiments were performed on 8 to 12-week-old female mice weighing 20-25 g that were housed under controlled environmental conditions and maintained with standard food and water. Animal care and experimental procedures were approved by the Animal Experimentation Committee of the Nagoya University Graduate School of Medicine and were conducted according to the Nagoya University Regulations for Experiments. Renal ablation was performed as described previously. Briefly, mice were anesthetized by diethyl ether. The flank region was shaved, and the animals were placed on a heating pad to maintain a constant body temperature (37° C.). Under anesthesia, right flank incisions were made, and the right kidney was removed. Seven days later, mice were anesthetized as above, and two-thirds of the mass of the left kidneys was ablated (Mdk^+/+: 2 weeks, n=13; 4 weeks, n=13; 8 weeks, n=8; Mdk^−/−: 2 weeks, n=10; 4 weeks, n=10; 8 weeks, n=4). After the renal ablation, the flanks were closed in 2 layers with 5-0 silk sutures. The animals received 100 ml/kg warm saline instilled into the peritoneal cavity during the procedure and were allowed to recover with free access to food and water. In the control mice, a sham operation was performed (Mdk^+/+, n=11; Mdk^−/−, n=8).
as §1
Sample collection. Mice were sacrificed at 2, 4, and 8 weeks after 5/6 nephrectomy. The remnant kidney, lung, brain, heart, and liver were removed rapidly, snap-frozen in liquid nitrogen, and stored at −80° C. until examinations were performed. Each tissue was processed for histology, protein extraction, and RNA extraction. Blood samples were collected into chilled tubes for measurement of renal function parameters and into chilled tubes containing EDTA for Ang II measurements. Serum and plasma were separated by centrifugation (500 g for 10 minutes) and stored at −80° C. until measurement were performed. Serum creatinine, blood urea nitrogen (Mdk^+/+: sham, n=6; 2 weeks, n=10; 4 weeks, n=9; 8 weeks, n=8; Mdk^−/−: sham, n=7; 2 weeks, n=7; 4 weeks, n=6; 8 weeks, n=4), and Ang II concentrations (Mdk^+/+: sham, n=6; 2 weeks, n=6; 4 weeks, n=8; Mdk^−/−: sham, n=6; 2 weeks, n=7; 4 weeks, n=5) were measured by Mitsubishi BCL.

Ang II = experiment: Plasma Ang II concentration after 5/6 nephrectomy; type: in vivo; details: Mdk+/+ mice after 5/6 nephrectomy
Experimental: as §1, with “Mice were sacrificed at 2 weeks after 5/6 nephrectomy, and blood and tissue samples were collected.” left out
Sample collection. […] Serum creatinine, blood urea nitrogen (Mdk^+/+: sham, n=6; 2 weeks, n=10; 4 weeks, n=9; 8 weeks, n=8; Mdk^−/−: sham, n=7; 2 weeks, n=7; 4 weeks, n=6; 8 weeks, n=4), and Ang II concentrations (Mdk^+/+: sham, n=6; 2 weeks, n=6; 4 weeks, n=8; Mdk^−/−: sham, n=6; 2 weeks, n=7; 4 weeks, n=5) were measured by Mitsubishi BCL.

MK = MK protein expression in lung and kidney by Western blotting after 5/6 nephrectomy; type: in vivo; details: Mdk+/+ mice after 5/6 nephrectomy
Experimental: as §1
Western blot analysis. Mouse kidney, lung, brain, heart, and liver tissues were snap-frozen in liquid nitrogen for protein isolation. […] The density of each band was measured using the public domain NIH Image program (http://rsb.info.nih.gov/nih-image/).

HMVEC-L = experiment: Ang II concentration in HMVEC-L (conversion from Ang I to Ang II); type: cell-based, human; details: HMVEC-L treated 36 hours with MK 100 ng/ml plus heparin 20 μg/ml or heparin alone, then Ang I added
Experimental: Ang II concentration in HMVEC-L. After reaching confluence, HMVEC-L were washed with PBS and cultured for 24 hours in essential basal medium containing 0.5% FBS. These cells were exposed to 100 ng/ml rh-MK plus 20 μg/ml heparin or 20 μg/ml heparin alone in essential basal medium containing 0.5% FBS for 36 hours. After stimulation, HMVEC-L were washed with PBS and exposed to 500 pM Ang I (Sigma-Aldrich) for 10 and 25 minutes. Supernatants were collected into chilled tubes, and then the Ang II concentration was measured as previously described (Hypertension. 39:129-134).

[4] = system: Mdk-/- mice after 5/6 nephrectomy; experiment: rh-MK and -PTN treatment model (osmotic pump), blood pressure by tail-cuff; type: in vivo; details: 1.6 mg/ml, 100 μl by osmotic pump over 14 days
Experimental: rh-MK and -PTN treatment model. In the pump study, MK protein in saline (1.6 mg/ml) (n=5), PTN in saline (1.6 mg/ml; n=5), or saline alone (n=5) was infused using an osmotic pump (ALZA Corp.) into Mdk^−/− mice after 5/6 nephrectomy. The pumps continuously infused a total of 100 μl over 14 days. The pumps were implanted under the dorsal skin the next day after 5/6 nephrectomy. Blood pressure was measured by the indirect tail-cuff technique at 0 and 2 weeks after 5/6 nephrectomy. Mice were sacrificed at 2 weeks after 5/6 nephrectomy, and blood and tissue samples were collected.
as §2

Molecule | Blood pressure / hypertension [1] | Renal tubulointerstitial damage [2] | BUN (blood urea nitrogen) [3] | Cre (serum creatinine) [3] | Abnormal elevation of blood urea nitrogen and serum creatinine [3] | further results
CN(C)CCCn1cc(C2=C(c3c[nH]c4ccccc34)C(=O)NC2=O)c2ccccc21 [BIS, bisindolylmaleimide I] | – | – | – | – | – | MK-mediated increase in ACE expression (ACE; BIS 5 μM added 1 hour before 36-hour treatment with rh-MK plus heparin): blocked; PMA-induced increase in ACE expression (ACE; BIS added 1 hour before PMA): blocked
NNc1nncc2ccccc12 [Hydralazine, hydralazine hydrochloride] | ameliorated hypertension | not | 63.3 ± 7.6 mg/dL | 0.53 ± 0.12 mg/dL | not | –
CCCc1nc(C(C)(C)O)c(C(=O)O)n1Cc1ccc(-c2ccccc2-c2nnn[nH]2)cc1 [Olmesartan, olmesartan] | – | – | 36.0 ± 1.0^B mg/dl | 0.21 ± 0.01^A mg/dl | – | –
CCCCCCCCCCCCCC(=O)O[C@@H]1[C@@H](C)[C@@]2(O)[C@@H](C=C(CO)C[C@]3(O)C(=O)C(C)=C[C@@H]23)[C@@H]2C(C)(C)[C@]12OC(C)=O [PMA] | – | – | – | – | – | ACE expression in HMVEC-L (ACE; PMA 50 ng/ml): induced
CCOC(=O)[C@H](CCc1ccccc1)N[C@H]1CS[C@H](c2cccs2)CN(CC(=O)O)C1=O [Temocapril, temocapril] | reduced | reduced | 30.3 ± 2.9^A mg/dl | 0.21 ± 0.04^A mg/dl | ameliorated | –
CC1(C)CC(O)CC(C)(C)N1[O] [Tempol, 4-hydroxy-2,2,6,6-tetramethylpiperidine-N-oxyl] | reduced | slight; also recorded: ameliorated | 41.2 ± 3.9^B mg/dl | 0.25 ± 0.04^A mg/dl | significantly reduced | Plasma Ang II levels (Ang II): reduced; Glomerular sclerosis [2]: ameliorated; MK expression in the lung (MK; tempol 3 mmol/l in drinking water): reduced MK expression to normal levels; MK expression in the kidney (MK; tempol in drinking water): reduced
heparin | – | – | – | – | – | Conversion of Ang I to Ang II (HMVEC-L): did not show such a conversion
B1 | – | – | – | – | – | Hypertension (SBP) [4]: neither induced hypertension
